Here are results for 19 compounds from patent US20240327382A1 (ALMAC DISCOVERY LIMITED, priority 2021, published 2024).

Where only a bound is given, the exact number is not on record here.

This assay deals with T1, Full-length USP19 (Homo sapiens, UniProt O94966).
T1 construct: Full-length USP19 was purchased from Boston Biochem (E-576); purchased Boston Biochem E-576
T1 sequence (O94966 1-1318): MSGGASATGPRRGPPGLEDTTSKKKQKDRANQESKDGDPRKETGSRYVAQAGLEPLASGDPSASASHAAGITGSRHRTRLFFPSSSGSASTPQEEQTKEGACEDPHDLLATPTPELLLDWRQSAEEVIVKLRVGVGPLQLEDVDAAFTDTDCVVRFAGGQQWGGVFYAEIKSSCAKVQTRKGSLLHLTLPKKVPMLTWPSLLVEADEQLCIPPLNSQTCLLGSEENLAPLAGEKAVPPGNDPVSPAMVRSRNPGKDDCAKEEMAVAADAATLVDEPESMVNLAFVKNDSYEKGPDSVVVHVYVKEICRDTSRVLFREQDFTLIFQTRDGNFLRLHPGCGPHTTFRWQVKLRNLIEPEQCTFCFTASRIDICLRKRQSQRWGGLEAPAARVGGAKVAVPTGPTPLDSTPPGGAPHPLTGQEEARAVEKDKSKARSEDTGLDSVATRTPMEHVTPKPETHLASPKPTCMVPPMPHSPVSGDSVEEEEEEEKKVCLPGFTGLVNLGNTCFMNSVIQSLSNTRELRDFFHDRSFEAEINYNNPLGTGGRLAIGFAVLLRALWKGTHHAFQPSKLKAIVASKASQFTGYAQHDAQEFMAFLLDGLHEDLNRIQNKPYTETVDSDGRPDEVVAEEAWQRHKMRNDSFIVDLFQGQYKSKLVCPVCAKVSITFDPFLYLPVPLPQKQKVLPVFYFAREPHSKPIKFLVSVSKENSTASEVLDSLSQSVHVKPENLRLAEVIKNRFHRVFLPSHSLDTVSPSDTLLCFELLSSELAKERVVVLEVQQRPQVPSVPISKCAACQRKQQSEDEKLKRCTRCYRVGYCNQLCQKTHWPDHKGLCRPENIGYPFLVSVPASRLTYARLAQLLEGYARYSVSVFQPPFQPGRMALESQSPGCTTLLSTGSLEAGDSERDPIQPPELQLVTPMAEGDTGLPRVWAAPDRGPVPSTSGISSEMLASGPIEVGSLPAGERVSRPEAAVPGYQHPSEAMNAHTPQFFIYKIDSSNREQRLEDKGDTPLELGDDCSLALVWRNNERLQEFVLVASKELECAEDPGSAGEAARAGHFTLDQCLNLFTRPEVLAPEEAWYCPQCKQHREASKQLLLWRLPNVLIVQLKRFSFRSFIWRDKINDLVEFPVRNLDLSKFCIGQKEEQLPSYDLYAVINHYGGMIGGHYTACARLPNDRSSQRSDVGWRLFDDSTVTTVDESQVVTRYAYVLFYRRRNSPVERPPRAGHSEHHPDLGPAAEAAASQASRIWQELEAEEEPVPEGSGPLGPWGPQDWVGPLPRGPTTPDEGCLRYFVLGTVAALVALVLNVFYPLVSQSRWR
As to the kind of experiment: USP19 fluorescence polarisation (FP) assay, Ubiquitin-Lys-TAMRA substrate. It is filed as biochemical. Conditions: average of at least two duplicate experiments. As for the experimental part: USP19 activity was determined in a fluorescence polarisation (FP) homogeneous assay using the isopeptide Ubiquitin-Lys-TAMRA substrate (either AUB-101, Almac Sciences Scotland Limited, or U-558, Boston Biochem, both of which gave identical results). Full-length USP19 was purchased from Boston Biochem (E-576). Unless otherwise stated, all other reagents were purchased from Sigma. Enzymatic reactions were conducted in black flat bottom polystyrene 384-well plates (Nunc) and 30 μL total volume. USP19 (2.5 nM, 10 μL) was incubated in assay buffer (50 mM HEPES (pH 7.4), 150 mM NaCl, 5 mM DTT, 0.05% BSA (w/v), 0.05% CHAPS) in the presence or absence of inhibitor (10 μL). Inhibitors were stored as 10 mM DMSO stocks in an inert environment (low humidity, dark, low oxygen, rt) using the StoragePod® system (Roylan Developments) and serial dilutions were prepared in buffer just prior to the assay (from 200 μM to 2 μM, 8-18 data point curve). Following incubation at RT for 30 min, the enzymatic reactions were initiated by dispensing the Ub substrate (500 nM, 10 μL). FP was measured every 15 min over a period of 90 min (within the linear range of the assay) using a Synergy 4 plate reader (BioTek) exciting at 530 nm and measuring the amount of parallel and perpendicular light at 575 nm. The FP signal was subsequently normalised to the no compound control. Data were plotted and fitted, and the concentrations resulting in 50% inhibition (IC50) were calculated using the non-linear regression curve fitting model using GraphPad (Prism). IC50 values for the inhibitors of the invention are compiled in Tables 1 and 3 and represent the average of at least two duplicate experiments.
On the technique in general: Fluorescence polarisation rises when a labelled molecule tumbles more slowly, as on binding a larger partner.
As for `CC(=O)N[C@@H]1CCN(C(=O)N2CC[C@@H](Cn3ccc(-c4ccccc4)cc3=O)C3(CCCC3)C2)[C@H](c2ccccc2)C1` [Example 93, N-((2S,4R)-1-((R)-10-((2-Oxo-4-phenylpyridin-1(2H)-yl)methyl)-7-azaspiro[4.5]decane-7-carbonyl)-2-phenylpiperidin-4-yl)acetamide], the half-maximal inhibitory concentration (IC50) (as a rule, the concentration that gives 50% inhibition) was in the range of 10 to 100 nM.

On to `CN[C@@H]1CCN(C(=O)N2CC[C@@H](Cn3cnc(-c4ccccc4OC)cc3=O)C3(CCCC3)C2)[C@H](c2cc(F)cc(F)c2)C1` [Example 124, 3-(((R)-7-((2S,4R)-2-(3,5-Difluorophenyl)-4-(methylamino)piperidine-1-carbonyl)-7-azaspiro[4.5]decan-10-yl)methyl)-6-(2-methoxyphenyl)pyrimidin-4(3H)-one], for which the IC50 was less than 10 nM.

As to `N[C@@H]1CCN(C(=O)N2CCC(Cn3ccc(C(F)(F)F)cc3=O)C3(CCCC3)C2)[C@H](c2ccccc2)C1` (stereo partly drawn) [Example 43, 1-((7-((2S,4R)-4-Amino-2-phenylpiperidine-1-carbonyl)-7-azaspiro[4.5]decan-10-yl)methyl)-4-(trifluoromethyl) pyridin-2(1H)-one], the IC50 lay within 10 to 100 nM.

Take `O=C(N1CC[C@@H](Cn2cnc(-c3ccccc3)cc2=O)C2(CCCC2)C1)N1CCNC[C@H]1c1ccccc1` (single isomer, unassigned) [Example 14]: the IC50 is less than 10 nM.

As to `CN[C@@H]1CCN(C(=O)N2CC[C@@H](Cn3ccc(-c4ccccc4OC)cc3=O)C3(CCCC3)C2)[C@H](c2ccc(F)cc2)C1` [Example 120, 1-(((R)-7-((2S,4R)-2-(4-Fluorophenyl)-4-(methylamino)piperidine-1-carbonyl)-7-azaspiro[4.5]decan-10-yl)methyl)-4-(2-methoxyphenyl)pyridin-2(1H)-one], the IC50 is less than 10 nM.

Consider `COc1ccccc1-c1cc(=O)n(C[C@@H]2CCN(C(=O)N3CCNC[C@H]3c3cc(F)ccc3F)CC23CCCC3)cn1` [Example 116, 3-(((R)-7-((R)-2-(2,5-Difluorophenyl)piperazine-1-carbonyl)-7-azaspiro[4.5]decan-10-yl)methyl)-6-(2-methoxyphenyl)pyrimidin-4(3H)-one], for which the IC50 was less than 10 nM.

Turning to `CN[C@@H]1CCN(C(=O)N2CC[C@@H](Cn3cnc(-c4ccccc4OC)cc3=O)C3(CCCC3)C2)[C@H](c2cccc(F)c2F)C1` [Example 149, 3-(((R)-7-((2S,4R)-2-(2,3-Difluorophenyl)-4-(methylamino)piperidine-1-carbonyl)-7-azaspiro[4.5]decan-10-yl)methyl)-6-(2-methoxyphenyl)pyrimidin-4(3H)-one], the IC50 is less than 10 nM.

Take `O=C(N1CC[C@@H](Cn2cnc(-c3ccccc3)cc2=O)C2(CCCC2)C1)N1CC[C@@H](NCCF)C[C@H]1c1cccc(F)c1` [Example 196, 3-(((R)-7-((2S,4R)-4-((2-Fluoroethyl)amino)-2-(3-fluorophenyl)piperidine-1-carbonyl)-7-azaspiro[4.5]decan-10-yl)methyl)-6-phenylpyrimidin-4(3H)-one]: the IC50 was less than 10 nM.

For the compound `N[C@@H]1CCN(C(=O)N2CC[C@@H](Cn3ccc(Cl)cc3=O)C3(CCCC3)C2)[C@H](c2ccccc2)C1` [Example 67, 1-(((R)-7-((2S,4R)-4-Amino-2-phenylpiperidine-1-carbonyl)-7-azaspiro[4.5]decan-10-yl)methyl)-4-chloropyridin-2(1H)-one], the IC50 was less than 10 nM.

As to `CNC(=O)[C@@H]1CCN(C(=O)N2CC[C@@H](Cn3cnc(-c4ccccc4)cc3=O)C3(CCCC3)C2)[C@H](c2ccccc2)C1` [Example 176, (2S,4R)-N-Methyl-1-((R)-10-((6-oxo-4-phenylpyrimidin-1(6H)-yl)methyl)-7-azaspiro[4.5]decane-7-carbonyl)-2-phenylpiperidine-4-carboxamide], the IC50 fell in the range of 100 to 1000 nM.

Take `O=C(N[C@@H]1CCN(C(=O)N2CC[C@@H](Cn3cnc(-c4ccccc4)cc3=O)C3(CCCC3)C2)[C@H](c2cc(F)ccc2F)C1)c1ccccn1` [Example 165, N-((2S,4R)-2-(2,5-Difluorophenyl)-1-((R)-10-((6-oxo-4-phenylpyrimidin-1(6H)-yl)methyl)-7-azaspiro[4.5]decane-7-carbonyl)piperidin-4-yl)picolinamide]: the IC50 fell in the range of 10 to 100 nM.

On to `CN[C@@H]1CCN(C(=O)N2CC[C@@H](Cn3cnc(-c4ccccc4F)cc3=O)C3(CCCC3)C2)[C@H](c2ccccc2)C1` [Example 109, 6-(2-Fluorophenyl)-3-(((R)-7-((2S,4R)-4-(methylamino)-2-phenylpiperidine-1-carbonyl)-7-azaspiro[4.5]decan-10-yl)methyl)pyrimidin-4(3H)-one], for which the IC50 was less than 10 nM.

In the case of `N[C@@H]1CCN(C(=O)N2CCC(Cn3cnc(C(F)F)cc3=O)C3(CCCC3)C2)[C@H](c2ccccc2)C1` (stereo partly drawn) [Example 28, 3-((7-((2S,4R)-4-Amino-2-phenylpiperidine-1-carbonyl)-7-azaspiro[4.5]decan-10-yl)methyl)-6-(difluoromethyl) pyrimidin-4(3H)-one], the IC50 lay within 10 to 100 nM.

Consider `CN[C@@H]1CCN(C(=O)N2CC[C@@H](Cn3cnc4ccc(F)cc4c3=O)C3(CCCC3)C2)[C@H](c2cccc(F)c2F)C1` [Example 166, 3-(((R)-7-((2S,4R)-2-(2,3-Difluorophenyl)-4-(methylamino)piperidine-1-carbonyl)-7-azaspiro[4.5]decan-10-yl)methyl)-6-fluoroquinazolin-4(3H)-one], for which the 50% inhibitory concentration (IC50) is less than 10 nM.

`CN[C@@H]1CCN(C(=O)N2CC[C@](Cn3ccc(-c4ccccc4)cc3=O)(OC)C3(CCCC3)C2)[C@H](c2ccccc2)C1` [Example 58, 1-(((S)-10-Methoxy-7-((2S,4R)-4-(methylamino)-2-phenylpiperidine-1-carbonyl)-7-azaspiro[4.5]decan-10-yl)methyl)-4-phenylpyridin-2(1H)-one]: the IC50 was less than 10 nM.

In the case of `O=C(NCc1ccccc1)N1CCC(Cn2cnc(-c3ccccc3)cc2=O)C2(CCCC2)C1` (stereo not shown) [Example 10, N-Benzyl-10-((6-oxo-4-phenylpyrimidin-1(6H)-yl)methyl)-7-azaspiro[4.5]decane-7-carboxamide], the IC50 fell in the range of 100 to 1000 nM.

In the case of `N[C@@H]1CCN(C(=O)N2CC[C@H](Cn3cnc(-c4ccccc4)cc3=O)C3(CCCC3)C2)[C@H](c2ccccc2)C1` [Example 26], the IC50 was 100 to 1000 nM.

As to `CCN[C@@H]1CCN(C(=O)N2CC[C@@H](Cn3ccc(Cl)cc3=O)C3(CCCC3)C2)[C@H](c2cc(F)ccc2F)C1` [Example 179, 4-Chloro-1-(((R)-7-((2S,4R)-2-(2,5-difluorophenyl)-4-(ethylamino)piperidine-1-carbonyl)-7-azaspiro[4.5]decan-10-yl)methyl)pyridin-2(1H)-one], the IC50 is less than 10 nM.

With `CN(C)C(=O)[C@@H]1CCN(C(=O)N2CC[C@@H](Cn3cnc(-c4ccccc4)cc3=O)C3(CCCC3)C2)[C@H](c2ccccc2)C1` [Example 177, (2S,4R)-N,N-Dimethyl-1-((R)-10-((6-oxo-4-phenylpyrimidin-1(6H)-yl)methyl)-7-azaspiro[4.5]decane-7-carbonyl)-2-phenylpiperidine-4-carboxamide], the IC50 was 1000 to 20000 nM.
